Test results published in patent publication US20230212549A1, “COMPOUNDS COMPRISING A […] LIGAND AND USE THEREOF” (priority 2021, published 2023).
Numbered stars: 1 amine (or outer) side, 2 acyl side, 3 side chain; on linkers, the order of the positions; unused ones are H or OH. Bridge positions count the residues as written; N and C are the ends. Square brackets hold non-standard residues; d marks the D form. Peptide text beside a SMILES is read from it. * marks the point of attachment. ξ: configuration not given here. X1 = NCCNCC(CNCCN)C(=O)N1CCN(CC(=O)NCCCOCCOCCOCCCN*)CC1; Pyridine(3,5-bisCH2) = c1ncc(C[*:2])cc1C[*:1]; mXylylene = c1cc(C[*:1])cc(C[*:2])c1; PEG6 = NCCOCCOCCOCCOCCOCCOCCC(=O)O; Suc = O=C(CCC(=O)[*:2])[*:1]; Nle = CCCC[C@H](N)C(=O)O; X2 = NCCNCC(CNCCN)C(=O)*; ξC = NC(CS)C(=O)O; βAla = NCCC(=O)O

Key:
[1] = in vivo; conditions: swiss nude, mouse, iv
[2] = Radiochemical purity by HPLC of ^99mTc-labeled compounds; type: physicochemical; conditions: 99Tc-labeled compounds
Method: 100-500 MBq of ^99mTcO4 (in saline) were mixed with 11 μl of 0.5 M phosphate buffer pH 11.5-12.0 and 1.1 μl of 0.1 M trisodium citrate per 100 μl radionuclide solution. […] The mixture was incubated for 30 min at 25-50′° C. At the end of the incubation time, the mixture was neutralized with 3.0 μl 1 M HCl per 10 μl phosphate buffer and TWEEN-20 was added at a final concentration of 0.100.

[3] = molecular target: T1, Human recombinant FAP (Homo sapiens, UniProt Q12884); test: FRET-based FAP protease activity assay; type: biochemical; parameters: purchased R&D systems 3715-SE
[4] = molecular target: T2, FAP-expressing human WI-38 fibroblasts (Homo sapiens, UniProt Q12884); test: Competitive FACS binding assay
T2 construct: FAP-expressing human WI-38 fibroblasts (ECACC) were cultured in EMEM; host or cells: WI-38 human fibroblasts
Method: Cells were analyzed in an Attune NxT flow cytometer. […] […].
Cells were analyzed in an Attune NxT flow cytometer. […]

[5] = molecular target: T1, Human recombinant FAP; test: Surface plasmon resonance (Biacore) assay; type: binding
[6] = pIC50 Category (activity), Recombinant human FAP

T1 sequence (Q12884 whole entry): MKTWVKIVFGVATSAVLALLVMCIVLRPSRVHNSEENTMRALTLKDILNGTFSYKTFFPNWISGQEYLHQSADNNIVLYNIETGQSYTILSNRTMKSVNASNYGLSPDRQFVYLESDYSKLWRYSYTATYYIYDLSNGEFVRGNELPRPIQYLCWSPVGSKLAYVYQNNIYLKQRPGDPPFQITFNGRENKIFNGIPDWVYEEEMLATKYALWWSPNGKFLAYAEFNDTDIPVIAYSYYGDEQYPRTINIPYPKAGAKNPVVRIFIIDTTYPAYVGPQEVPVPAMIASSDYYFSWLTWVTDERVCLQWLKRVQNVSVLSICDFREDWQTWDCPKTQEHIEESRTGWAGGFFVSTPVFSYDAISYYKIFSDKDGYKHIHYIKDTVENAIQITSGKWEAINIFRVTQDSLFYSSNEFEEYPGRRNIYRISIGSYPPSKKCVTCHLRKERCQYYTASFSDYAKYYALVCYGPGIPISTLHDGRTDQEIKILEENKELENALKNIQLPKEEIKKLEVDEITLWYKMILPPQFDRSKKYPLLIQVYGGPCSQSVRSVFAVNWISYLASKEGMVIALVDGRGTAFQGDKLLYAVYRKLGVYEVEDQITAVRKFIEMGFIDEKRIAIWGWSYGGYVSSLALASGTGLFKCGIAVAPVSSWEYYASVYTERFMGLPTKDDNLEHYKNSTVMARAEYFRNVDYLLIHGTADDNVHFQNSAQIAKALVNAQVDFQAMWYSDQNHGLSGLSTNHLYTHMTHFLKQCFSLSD
T2 sequence (Q12884 whole entry): as above

Structure (SMILES): CCCC[C@H](NC(=O)CCC(=O)NCCCOCCOCCOCCCNC(=O)CN1CCN(C(=O)C(CNCCN)CNCCN)CC1)C(=O)N[C@H]1CSCc2cccc(c2)CSC[C@@H](C(=O)NCCC(=O)O)NC(=O)[C@H](Cc2ccccc2)NC(=O)[C@H](CCC(=O)O)NC(=O)[C@H]([C@@H](C)O)NC(=O)[C@@H]2CCCN2C(=O)[C@@H]2CCCN2C1=O [3BP-4784, N4Ac-PPAc-Ttds-Nle-[Cys(3MeBn)-Pro-Pro-Thr-Glu-Phe-Cys]-Bal-OH] ({X1-Suc}-[Nle]CPPTEFC[βAla]-OH; linker 2-8 via mXylylene)
- tissue uptake at 1 h ([1]; blood pool surrogate (BPS)): 0.9 %ID/g
- tissue uptake at 3 h ([1]; blood pool surrogate (BPS)): 0.63 %ID/g
- tissue uptake at 6 h ([1]; blood pool surrogate (BPS)): 0.38 %ID/g
- tissue uptake at 1 h ([1]; kidneys): 1.61 %ID/g
- tissue uptake at 3 h ([1]; kidneys): 1.23 %ID/g
- tissue uptake at 6 h ([1]; kidneys): 1.01 %ID/g
- tissue uptake at 1 h ([1]; tumor): 7.65 %ID/g
- tissue uptake at 3 h ([1]; tumor): 7.43 %ID/g
- tissue uptake at 6 h ([1]; tumor): 7.44 %ID/g
- HPLC Area % appr. 4 h post end of synthesis [2]: 94.9%
- HPLC Area % at end of synthesis [2]: 96.6%
- IC50 [3, 6]: < 10 nM
- IC50 [4]: < 10 nM
- Kd [5]: < 10 nM

Structure (SMILES): CCCC[C@H](NC(=O)CCOCCOCCOCCOCCOCCOCCNC(=O)C(CNCCN)CNCCN)C(=O)N[C@H]1CSCc2cncc(c2)CSCC(C(=O)O)NC(=O)[C@H](Cc2ccccc2)NC(=O)[C@H](CCC(=O)O)NC(=O)[C@H]([C@@H](C)O)NC(=O)[C@@H]2CCCN2C(=O)[C@@H]2CCCN2C1=O (stereo partly drawn) [3BP-4773, N4Ac-PEG6-Nle-[Cys(3Lut)-Pro-Pro-Thr-Glu-Phe-Cys]-OH] ({X2-PEG6}-[Nle]CPPTEF[ξC]-OH; linker 2-8 via Pyridine(3,5-bisCH2))
- tissue uptake at 1 h ([1]; blood pool surrogate (BPS)): 0.25 %ID/g
- tissue uptake at 3 h ([1]; blood pool surrogate (BPS)): 0.09 %ID/g
- tissue uptake at 6 h ([1]; blood pool surrogate (BPS)): 0.06 %ID/g
- tissue uptake at 1 h ([1]; kidneys): 6.64 %ID/g
- tissue uptake at 3 h ([1]; kidneys): 4.71 %ID/g
- tissue uptake at 6 h ([1]; kidneys): 3.12 %ID/g
- tissue uptake at 1 h ([1]; tumor): 6.19 %ID/g
- tissue uptake at 3 h ([1]; tumor): 6.19 %ID/g
- tissue uptake at 6 h ([1]; tumor): 5.42 %ID/g
- HPLC Area % at end of synthesis [2]: 95.8%
- IC50 [3, 6]: 10 to 79.4 nM
- IC50 [4]: 10 to 79.4 nM
- Kd [5]: 10 to 79.4 nM

Structure (SMILES): CCCC[C@H](NC(=O)CCOCCOCCOCCOCCOCCOCCNC(=O)C(CNCCN)CNCCN)C(=O)N[C@H]1CSCc2cccc(c2)CSCC(C(=O)O)NC(=O)[C@H](Cc2ccccc2)NC(=O)[C@H](CCC(N)=O)NC(=O)[C@H]([C@@H](C)O)NC(=O)[C@@H]2CCCN2C(=O)[C@@H]2CCCN2C1=O (stereo partly drawn) [3BP-4551, N4Ac-PEG6-Nle-[Cys(3MeBn)-Pro-Pro-Thr-Gln-Phe-Cys]-OH]
- tissue uptake at 1 h ([1]; blood pool surrogate (BPS)): 0.18 %ID/g
- tissue uptake at 3 h ([1]; blood pool surrogate (BPS)): 0.07 %ID/g
- tissue uptake at 6 h ([1]; blood pool surrogate (BPS)): 0.04 %ID/g
- tissue uptake at 1 h ([1]; kidneys): 4.34 %ID/g
- tissue uptake at 3 h ([1]; kidneys): 1.18 %ID/g
- tissue uptake at 6 h ([1]; kidneys): 0.5 %ID/g
- tissue uptake at 1 h ([1]; tumor): 10.6 %ID/g
- tissue uptake at 3 h ([1]; tumor): 7.31 %ID/g
- tissue uptake at 6 h ([1]; tumor): 4.59 %ID/g
- HPLC Area % appr. 4 h post end of synthesis [2]: 90.8%
- HPLC Area % at end of synthesis [2]: 94.1%
- IC50 [3, 6]: 10 to 79.4 nM
- IC50 [4]: 10 to 79.4 nM
- Kd [5]: 10 to 79.4 nM

Structure (SMILES): CCCC[C@H](NC(=O)CCC(=O)NCCCOCCOCCOCCCNC(=O)CN1CCN(C(=O)C(CNCCN)CNCCN)CC1)C(=O)N[C@H]1CSCc2cncc(c2)CSCC(C(=O)O)NC(=O)[C@H](Cc2ccccc2)NC(=O)[C@H](CCC(=O)O)NC(=O)[C@H]([C@@H](C)O)NC(=O)[C@@H]2CCCN2C(=O)[C@@H]2CCCN2C1=O (stereo partly drawn) [3BP-4775, N4Ac-PPAc-Ttds-Nle-[Cys(3Lut)-Pro-Pro-Thr-Glu-Phe-Cys]-OH] ({X1-Suc}-[Nle]CPPTEF[ξC]-OH; linker 2-8 via Pyridine(3,5-bisCH2))
- tissue uptake at 1 h ([1]; blood pool surrogate (BPS)): 0.21 %ID/g
- tissue uptake at 3 h ([1]; blood pool surrogate (BPS)): 0.18 %ID/g
- tissue uptake at 6 h ([1]; blood pool surrogate (BPS)): 0.04 %ID/g
- tissue uptake at 1 h ([1]; kidneys): 8.98 %ID/g
- tissue uptake at 3 h ([1]; kidneys): 6.31 %ID/g
- tissue uptake at 6 h ([1]; kidneys): 4.28 %ID/g
- tissue uptake at 1 h ([1]; tumor): 7.88 %ID/g
- tissue uptake at 3 h ([1]; tumor): 6.28 %ID/g
- tissue uptake at 6 h ([1]; tumor): 4.55 %ID/g
- HPLC Area % appr. 4 h post end of synthesis [2]: 88.1%
- HPLC Area % at end of synthesis [2]: 86.4%
- IC50 [3, 6]: 10 to 79.4 nM
- IC50 [4]: 10 to 79.4 nM
- Kd [5]: 10 to 79.4 nM

Structure (SMILES): CCCC[C@H](NC(=O)CCOCCOCCOCCOCCOCCOCCNC(=O)C(CNCCN)CNCCN)C(=O)N[C@H]1CSCc2cncc(c2)CSCC(C(=O)O)NC(=O)[C@H](Cc2ccccc2)NC(=O)[C@H](CCC(N)=O)NC(=O)[C@H]([C@@H](C)O)NC(=O)[C@@H]2CCCN2C(=O)[C@@H]2CCCN2C1=O (stereo partly drawn) [3BP-4550, N4Ac-PEG6-Nle-[Cys(3Lut)-Pro-Pro-Thr-Gln-Phe-Cys]-OH]
- tissue uptake at 1 h ([1]; blood pool surrogate (BPS)): 0.06 %ID/g
- tissue uptake at 3 h ([1]; blood pool surrogate (BPS)): 0.03 %ID/g
- tissue uptake at 6 h ([1]; blood pool surrogate (BPS)): 0.04 %ID/g
- tissue uptake at 1 h ([1]; kidneys): 0.92 %ID/g
- tissue uptake at 3 h ([1]; kidneys): 0.62 %ID/g
- tissue uptake at 6 h ([1]; kidneys): 0.38 %ID/g
- tissue uptake at 1 h ([1]; tumor): 6.14 %ID/g
- tissue uptake at 3 h ([1]; tumor): 4.91 %ID/g
- tissue uptake at 6 h ([1]; tumor): 2.91 %ID/g
- HPLC Area % at end of synthesis [2]: 100%
- HPLC Area % appr. 4 h post end of synthesis ([2]; (3 h)): 98.0%
- IC50 [3, 6]: 10 to 79.4 nM
- IC50 [4]: 100 to 794 nM
- Kd [5]: 10 to 79.4 nM

Structure (SMILES): CCCC[C@H](NC(=O)CCC(=O)NCCCOCCOCCOCCCNC(=O)C(CNCCN)CNCCN)C(=O)N[C@H]1CSCc2cncc(c2)CSCC(C(=O)O)NC(=O)[C@H](Cc2ccccc2)NC(=O)[C@H](CCC(N)=O)NC(=O)[C@H]([C@@H](C)O)NC(=O)[C@@H]2CCCN2C(=O)[C@@H]2CCCN2C1=O (stereo partly drawn) [3BP-4549, N4Ac-Ttds-Nle-[Cys(3Lut)-Pro-Pro-Thr-Gln-Phe-Cys]-OH]
- tissue uptake at 1 h ([1]; blood pool surrogate (BPS)): 0.18 %ID/g
- tissue uptake at 3 h ([1]; blood pool surrogate (BPS)): 0.03 %ID/g
- tissue uptake at 6 h ([1]; blood pool surrogate (BPS)): 0.01 %ID/g
- tissue uptake at 1 h ([1]; kidneys): 4.22 %ID/g
- tissue uptake at 3 h ([1]; kidneys): 1.82 %ID/g
- tissue uptake at 6 h ([1]; kidneys): 0.58 %ID/g
- tissue uptake at 1 h ([1]; tumor): 6.04 %ID/g
- tissue uptake at 3 h ([1]; tumor): 4.25 %ID/g
- tissue uptake at 6 h ([1]; tumor): 1.68 %ID/g
- HPLC Area % at end of synthesis [2]: 99.3%
- HPLC Area % appr. 4 h post end of synthesis ([2]; (3 h)): 97.6%
- IC50 [3, 6]: < 10 nM
- IC50 [4]: 10 to 79.4 nM
- Kd [5]: 10 to 79.4 nM

Structure (SMILES): CCCC[C@H](NC(=O)CCC(=O)NCCCOCCOCCOCCCNC(=O)CN1CCN(C(=O)C(CNCCN)CNCCN)CC1)C(=O)N[C@H]1CSCc2cccc(c2)CSC[C@@H](C(=O)NCCC(=O)O)NC(=O)[C@H](Cc2ccccc2)NC(=O)[C@H](CCC(N)=O)NC(=O)[C@H]([C@@H](C)O)NC(=O)[C@@H]2CCCN2C(=O)[C@@H]2CCCN2C1=O [3BP-4960, N4Ac-PPAc-Ttds-Nle-[Cys(3MeBn)-Pro-Pro-Thr-Gln-Phe-Cys]-Bal-OH]
- tissue uptake at 1 h ([1]; blood pool surrogate (BPS)): 0.74 %ID/g
- tissue uptake at 3 h ([1]; blood pool surrogate (BPS)): 0.47 %ID/g
- tissue uptake at 6 h ([1]; blood pool surrogate (BPS)): 0.17 %ID/g
- tissue uptake at 1 h ([1]; kidneys): 1.96 %ID/g
- tissue uptake at 3 h ([1]; kidneys): 1.21 %ID/g
- tissue uptake at 6 h ([1]; kidneys): 1.21 %ID/g
- tissue uptake at 1 h ([1]; tumor): 10.5 %ID/g
- tissue uptake at 3 h ([1]; tumor): 12.8 %ID/g
- tissue uptake at 6 h ([1]; tumor): 12.1 %ID/g
- HPLC Area % appr. 4 h post end of synthesis [2]: 92.3%
- HPLC Area % at end of synthesis [2]: 95.2%
- IC50 [3, 6]: < 10 nM
- IC50 [4]: < 10 nM
- Kd [5]: < 10 nM

Structure (SMILES): CCCCNC(=O)N[C@H]1CSCc2cc(CSCCNC(=O)C(CNCCN)CNCCN)cc(c2)CSC[C@@H](C(=O)O)NC(=O)[C@H](Cc2ccccc2)NC(=O)[C@H](CCC(N)=O)NC(=O)[C@H]([C@@H](C)O)NC(=O)[C@@H]2CCCN2C(=O)[C@@H]2CCCN2C1=O [3BP-4534, nBu-CAyl-[Cys(tMeBn(N4Ac-AET))-Pro-Pro-Thr-Gln-Phe-Cys]-OH]
- tissue uptake at 1 h ([1]; blood pool surrogate (BPS)): 1.7 %ID/g
- tissue uptake at 3 h ([1]; blood pool surrogate (BPS)): 1.19 %ID/g
- tissue uptake at 6 h ([1]; blood pool surrogate (BPS)): 0.78 %ID/g
- tissue uptake at 1 h ([1]; kidneys): 2.06 %ID/g
- tissue uptake at 3 h ([1]; kidneys): 1.4 %ID/g
- tissue uptake at 6 h ([1]; kidneys): 1.09 %ID/g
- tissue uptake at 1 h ([1]; tumor): 5.67 %ID/g
- tissue uptake at 3 h ([1]; tumor): 6.85 %ID/g
- tissue uptake at 6 h ([1]; tumor): 7.68 %ID/g
- HPLC Area % at end of synthesis [2]: 98.6%
- HPLC Area % appr. 4 h post end of synthesis ([2]; (3 h)): 97.5%
- IC50 ([3]; pIC50 Category (Activity), FRET-peptide substrate, 37° C.): < 10 nM
- IC50 [4]: < 10 nM
